Patent publication US10669272B2, “Substituted naphthyridinone compounds useful as T cell activators” (BRISTOL-MYERS SQUIBB COMPANY, priority 2018, dated 2020)
Read-outs that look alike come from different tables or passages of the source.

What was measured:
[1] = molecular target: T1, human DGKα (Homo sapiens, UniProt P23743); assay: DGKα LIPGLO assay (extruded liposome substrate), in vitro DGK inhibition; format: biochemical; details: read-out: DGKa LIPGLO IC50
T1 construct: TVMV protease cleavage site (C); Hexa-His (C); made in house; host or cells: Sf9 insect cells (baculovirus, Bac-to-Bac)

[2] = test system: Human venous whole blood; assay: Human whole blood IFN-γ assay; format: cell-based; details: human whole blood, read-out: INFg Whole Blood Normalized Agonist EC50;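 also: blood from healthy donors exposed to compound for 1 h before stimulation with anti-CD3 and anti-CD28 at 1 µg/mL each, IFN-γ quantified in supernatant by AlphaLISA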
Procedure: Human Whole Blood IFN-γ Assay
Human venous whole blood (22.5 μL per well), obtained from healthy donors, was pre-treated with compounds for one hour at 37° C. in a humidified 95% air/5% CO2 incubator. The blood was stimulated with 2.5 μL anti-human CD3 and anti-CD28 mAb at a final concentration of 1 μg/mL each for 24 hours at 37° C. IFN-γ in the supernatants was measured using AlphLISA kit (Cat # AL217).

[3] = molecular target: T2, human DGKζ (Homo sapiens, UniProt Q13574); assay: DGKζ LIPGLO assay (extruded liposome substrate), in vitro DGK inhibition; format: biochemical; details: read-out: DGKz LIPGLO IC50
T2 construct: TVMV protease cleavage site (C); Hexa-His (C); made in house; host or cells: Sf9 insect cells (baculovirus, Bac-to-Bac)

[4] = normalized to 3 μM reference compound with anti-CD3 plus anti-CD28 as 100% activation
[5] = Homo sapiens, 24 h, normalized to 3 μM reference compound with anti-CD3 plus anti-CD28 as 100% activation
[6] = Homo sapiens, 24 h, anti-CD3 plus anti-CD28, 24 hours, 3 μM reference compound = 100% activation
[7] = anti-CD3 plus anti-CD28, 24 hours, 3 μM reference compound = 100% activation

T1 sequence (P23743 with tags, fused parts or gaps): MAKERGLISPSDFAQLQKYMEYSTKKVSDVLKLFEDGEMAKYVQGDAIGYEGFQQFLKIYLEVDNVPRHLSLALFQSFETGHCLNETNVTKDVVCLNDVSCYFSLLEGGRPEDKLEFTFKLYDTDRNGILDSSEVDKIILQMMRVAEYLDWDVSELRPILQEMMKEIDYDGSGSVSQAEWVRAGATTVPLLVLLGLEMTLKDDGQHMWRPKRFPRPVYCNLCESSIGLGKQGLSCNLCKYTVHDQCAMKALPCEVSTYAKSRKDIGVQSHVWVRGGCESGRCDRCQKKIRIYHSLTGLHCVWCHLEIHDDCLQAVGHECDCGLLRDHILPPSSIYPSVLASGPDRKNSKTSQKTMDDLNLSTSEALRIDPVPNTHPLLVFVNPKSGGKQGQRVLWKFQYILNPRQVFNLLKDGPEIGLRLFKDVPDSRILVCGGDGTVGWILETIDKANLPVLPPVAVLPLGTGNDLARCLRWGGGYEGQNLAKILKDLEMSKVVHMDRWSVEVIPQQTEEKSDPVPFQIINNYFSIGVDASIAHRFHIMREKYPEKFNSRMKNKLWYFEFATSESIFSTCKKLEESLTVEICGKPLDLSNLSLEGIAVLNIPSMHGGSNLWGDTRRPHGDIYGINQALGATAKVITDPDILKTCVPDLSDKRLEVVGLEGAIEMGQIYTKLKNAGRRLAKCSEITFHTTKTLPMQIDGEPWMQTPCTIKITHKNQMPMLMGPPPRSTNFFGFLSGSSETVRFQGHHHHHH
T2 sequence (Q13574 with tags, fused parts or gaps isoform Q13574-4): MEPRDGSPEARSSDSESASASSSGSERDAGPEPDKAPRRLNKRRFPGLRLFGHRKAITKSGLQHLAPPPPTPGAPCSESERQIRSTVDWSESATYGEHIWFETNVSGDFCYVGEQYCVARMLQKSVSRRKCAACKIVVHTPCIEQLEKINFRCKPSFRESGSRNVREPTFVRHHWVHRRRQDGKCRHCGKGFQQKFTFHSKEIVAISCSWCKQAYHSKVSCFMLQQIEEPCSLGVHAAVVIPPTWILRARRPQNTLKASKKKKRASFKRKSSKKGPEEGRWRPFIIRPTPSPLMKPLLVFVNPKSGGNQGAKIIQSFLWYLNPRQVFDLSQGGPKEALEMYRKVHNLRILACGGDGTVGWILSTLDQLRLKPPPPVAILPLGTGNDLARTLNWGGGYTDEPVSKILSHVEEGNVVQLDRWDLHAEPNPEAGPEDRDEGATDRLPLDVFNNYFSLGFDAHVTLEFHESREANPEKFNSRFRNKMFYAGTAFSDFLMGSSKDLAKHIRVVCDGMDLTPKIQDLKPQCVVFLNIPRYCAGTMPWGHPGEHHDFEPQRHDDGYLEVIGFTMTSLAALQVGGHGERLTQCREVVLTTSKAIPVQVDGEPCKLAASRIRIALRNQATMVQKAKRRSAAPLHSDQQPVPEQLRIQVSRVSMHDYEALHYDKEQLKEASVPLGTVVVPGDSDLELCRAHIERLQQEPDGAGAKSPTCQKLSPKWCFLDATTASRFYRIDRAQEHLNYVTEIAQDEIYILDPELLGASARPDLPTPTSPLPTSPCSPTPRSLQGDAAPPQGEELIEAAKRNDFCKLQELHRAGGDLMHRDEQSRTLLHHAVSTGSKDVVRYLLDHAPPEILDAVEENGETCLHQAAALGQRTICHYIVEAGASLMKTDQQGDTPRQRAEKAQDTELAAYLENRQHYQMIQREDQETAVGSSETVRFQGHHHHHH

| Compound | IC50 ([1]; liposome (LIPGLO) assay) | EC50 [2, 4] | IC50 ([3]; liposome (LIPGLO) assay) | EC50 [2, 5] | IC50 ([1]; DGKα liposome (LIPGLO) assay) | EC50 [2, 6] | IC50 ([3]; DGKζ liposome (LIPGLO) assay) | EC50 [2, 7] |
| --- | --- | --- | --- | --- | --- | --- | --- | --- |
| CC(C)c1ccc(C(C)N2C[C@H](C)N(c3cc(=O)n(C)c4ccc(C#N)nc34)C[C@H]2C)cc1 (single isomer, unassigned) [Example 1233] | 290 nM | 380 nM | 100 nM |  |  |  |  |  |
| Cc1ccc(C(c2ccc(C#N)cc2)N2C[C@H](C)N(c3cc(=O)n(C)c4ccc(C#N)nc34)C[C@H]2C)nc1 (single isomer, unassigned) [Example 361] | 210 nM | 1100 nM | 1100 nM |  |  |  |  |  |
| COc1cc(OC(F)(F)F)ccc1CN1C[C@H](C)N(c2cc(=O)n(C)c3ccc(C#N)nc23)C[C@H]1C [Example 352, 8-((2S,5R)-4-(2-methoxy-4-(trifluoromethoxy)benzyl)-2,5-dimethylpiperazin-1-yl)-5-methyl-6-oxo-5,6-dihydro-1,5-naphthyridine-2-carbonitrile] | 520 nM |  | 1700 nM | 790 nM |  |  |  |  |
| CC(c1ccc(Cl)cc1)N1CCN(c2c(C#N)c(=O)n(C)c3ccc(C#N)nc23)C[C@H]1C (single isomer, unassigned) [Example 979] |  |  |  |  | 910 nM | 20000 nM | 55000 nM |  |
| C[C@@H]1CN(c2c(C#N)c(=O)n(C)c3ccc(C#N)nc23)CCN1Cc1ccc2ccccc2n1 [Example 992] |  |  |  |  | 1300 nM | 5800 nM | 3200 nM |  |
| C[C@@H]1CN(c2cc(=O)n(C)c3ccc(C#N)nc23)[C@@H](C)CN1C(c1ccc(O)cc1)C(F)(F)F (stereo partly drawn) [Example 626] | 1700 nM |  | 7900 nM | 2500 nM |  |  |  |  |
| COc1cc(F)c(C(C)N2C[C@H](C)N(c3cc(=O)n(C)c4ccc(C#N)nc34)C[C@H]2C)c(F)c1 (stereo partly drawn) [Example 1242] | 200 nM |  | 19 nM | 180 nM |  |  |  |  |
| CC[C@H]1CN(C(C)c2ccc(F)cc2F)[C@H](CC)CN1c1cc(=O)n(C)c2ccc(C#N)nc12 (single isomer, unassigned) [Example 1055] | 17 nM | 16 nM | 16 nM |  |  |  |  |  |
| C[C@@H]1CN(c2c(C#N)c(=O)n(C)c3ccc(C#N)nc23)[C@@H](C)CN1C(c1ccc(F)cc1)c1nc(C2CC2)no1 (single isomer, unassigned) [Example 861] |  |  |  |  | 420 nM |  | 630 nM | 420 nM |
| CC(c1ccc(OC(F)(F)F)c(F)c1)N1C[C@H](C)N(c2cc(=O)n(C)c3ccc(C#N)nc23)C[C@H]1C (single isomer, unassigned) [Example 1205] | 1700 nM | 8000 nM | 2700 nM |  |  |  |  |  |
| C[C@@H]1CN(c2cc(=O)n(C)c3ccc(C#N)nc23)[C@@H](C)CN1Cc1ccc(OC(F)(F)F)cc1Br [Example 593] | 3100 nM |  | 5900 nM | 1200 nM |  |  |  |  |
| C[C@@H]1CN(c2cc(=O)n(C)c3ccc(C#N)nc23)[C@@H](C)CN1C(c1ccc(F)cc1)c1cc(F)ccn1 (single isomer, unassigned) [Example 473] | 1700 nM | 880 nM | 4000 nM |  |  |  |  |  |
| CCC(c1ccc(OCCC2CC2)cc1)N1C[C@H](C)N(c2cc(=O)n(C)c3ccc(C#N)nc23)C[C@H]1C (single isomer, unassigned) [Example 1445] | 5400 nM | 5300 nM | 3600 nM |  |  |  |  |  |
| CC(=O)N1CC(c2noc(C(c3ccc(F)cc3)N3C[C@H](C)N(c4cc(=O)n(C)c5ccc(C#N)nc45)C[C@H]3C)n2)C1 (single isomer, unassigned) [Example 1297] | 220 nM |  | 92 nM | 2700 nM |  |  |  |  |
| CC(c1ccc(OC(F)(F)F)cc1)N1C[C@H](C)N(c2cc(=O)n(C)c3ccc(C#N)nc23)C[C@H]1CN1CCN(C)CC1 (stereo partly drawn) [Example 1418] | 67000 nM | 20000 nM | 62000 nM |  |  |  |  |  |
| C[C@@H]1CN(c2cc(=O)n(C)c3ccc(C#N)nc23)[C@@H](C)CN1C(c1ccc(F)cc1)c1nc(C2CN(C)C2)no1 (single isomer, unassigned) [Example 1298] | 2600 nM |  | 2700 nM | 13000 nM |  |  |  |  |
| CC(c1ccc(F)c(Cl)c1)N1C[C@H](C)N(c2cc(=O)n(C)c3ccc(C#N)nc23)C[C@H]1C (single isomer, unassigned) [Example 1257] | 7900 nM | 1700 nM | 1100 nM |  |  |  |  |  |

| Compound | IC50 ([1]; liposome (LIPGLO) assay) | EC50 [2, 4] | IC50 ([3]; liposome (LIPGLO) assay) | EC50 [2, 5] | IC50 ([1]; DGKα liposome (LIPGLO) assay) | EC50 [2, 6] | IC50 ([3]; DGKζ liposome (LIPGLO) assay) | EC50 [2, 7] |
| --- | --- | --- | --- | --- | --- | --- | --- | --- |
| CC[C@H]1CN(C(c2ccc(F)cc2)c2cocn2)[C@H](CC)CN1c1cc(=O)n(C)c2ccc(C#N)nc12 (single isomer, unassigned) [Example 1069] | 60 nM | 2100 nM | 910 nM |  |  |  |  |  |
| Cc1ccc(C(c2ccc(F)cc2Cl)N2C[C@H](C)N(c3c(C#N)c(=O)n(C)c4ccc(C#N)nc34)C[C@H]2C)nc1 (stereo partly drawn) [Example 831] |  |  |  |  | 42000 nM | 2500 nM | 6500 nM |  |
| C[C@@H]1CN(c2c(C#N)c(=O)n(C)c3ccc(C#N)nc23)CCN1C(c1ccc(F)cc1)c1ccc(C#N)cc1 (single isomer, unassigned) [Example 871] |  |  |  |  | 1100 nM | 3000 nM | 1300 nM |  |
| C[C@@H]1CN(c2c(C#N)c(=O)n(C)c3ccc(C#N)nc23)[C@@H](C)CN1C(c1ccccc1)c1ccc(Cl)cc1 (stereo partly drawn) [Example 835] |  |  |  |  | 11000 nM |  | 11000 nM | 20000 nM |
| CCC(c1ccc(OC(C)C)cc1)N1C[C@H](C)N(c2cc(=O)n(C)c3ccc(C#N)nc23)C[C@H]1C (single isomer, unassigned) [Example 1450] | 22000 nM | 6800 nM | 3600 nM |  |  |  |  |  |
| Cc1ccc(C(c2ccc(F)cc2)N2C[C@H](C)N(c3c(F)c(=O)n(C)c4ccc(C#N)nc34)C[C@H]2C)cc1 (stereo partly drawn) [Example 332, 7-fluoro-8-((2S,5R)-4-((4-fluorophenyl)(p-tolyl)methyl)-2,5-dimethylpiperazin-1-yl)-5-methyl-6-oxo-5,6-dihydro-1,5-naphthyridine-2-carbonitrile] | 3100 nM |  | 1000 nM | 1900 nM |  |  |  |  |
| CC(c1ccc(C#N)cc1F)N1C[C@H](C)N(c2cc(=O)n(C)c3ccc(C#N)nc23)C[C@H]1C (single isomer, unassigned) [Example 1226] | 750 nM | 8700 nM | 1700 nM |  |  |  |  |  |
| Cc1c(F)ccc(C(C)N2C[C@H](C)N(c3cc(=O)n(C)c4ccc(C#N)nc34)C[C@H]2C)c1Cl (single isomer, unassigned) [Example 433] | 79000 nM |  | 240 nM | 1300 nM |  |  |  |  |
| C[C@@H]1CN(c2c(C#N)c(=O)n(C)c3ccc(C#N)nc23)CCN1C(c1ccc(F)cc1)c1cnn(C)c1 (stereo partly drawn) [Example 1016] |  |  |  |  | 3300 nM | 3300 nM | 7500 nM |  |
| CC[C@@H]1CN(c2cc(=O)n(C)c3ccc(C#N)nc23)[C@@H](C)CN1Cc1ccc(C(F)(F)F)cc1C(F)(F)F [Example 1197] | 9500 nM |  | 1600 nM | 3500 nM |  |  |  |  |
| CC(c1ccc(C(F)(F)F)cc1)N1C[C@@H](C)N(c2cc(=O)n(C)c3ccc(C#N)nc23)C[C@@H]1C (single isomer, unassigned) [Example 346] | 1300 nM | 1100 nM | 1500 nM |  |  |  |  |  |
| C[C@@H]1CN(c2c(C#N)c(=O)n(C)c3ccc(C#N)nc23)CCN1C(c1ccc(F)cc1)c1ccccc1F (stereo partly drawn) [Example 882] |  |  |  |  | 820 nM |  | 960 nM | 1700 nM |
| CC(c1cccc(OC(F)(F)F)c1F)N1C[C@H](C)N(c2cc(=O)n(C)c3ccc(C#N)nc23)C[C@H]1C (single isomer, unassigned) [Example 1209] | 20000 nM | 12000 nM | 1200 nM |  |  |  |  |  |
| CC(c1ccc(F)cc1)N1C[C@@H](C)N(c2cc(=O)n(C)c3ccc(C#N)nc23)C[C@@H]1CO (single isomer, unassigned) [Example 1178] | 43000 nM | 3100 nM | 720 nM |  |  |  |  |  |
| CCC(c1ccc(C2CC2)cc1F)N1C[C@H](C)N(c2cc(=O)n(C)c3ccc(C#N)nc23)C[C@H]1C (stereo partly drawn) [Example 1218] | 67 nM |  | 69 nM | 320 nM |  |  |  |  |
| C[C@@H]1CN(c2cc(=O)n(C)c3ccc(C#N)nc23)[C@@H](C)CN1C(c1ccc(F)cc1)c1nc(C2CC2)cs1 (single isomer, unassigned) [Example 701] | 210 nM | 50 nM | 32 nM |  |  |  |  |  |
